The record followed here is the pKa sets of Baltruschat and Czodrowski (2020).

SMILES strings stand for the structures.

The term pKa denotes the negative logarithm of the acid dissociation constant. Low readings indicate a stronger acid or weaker base, high ones a weaker acid or stronger base. Compound `C#CCN(C)C` showed a pKa (basic group) of 7.05.
Take `COCC1=C(C(=O)O)C2C=CC1C2` (configuration not stated): the pKa (acidic group) was found to be 4.59.
`CC[NH+](CC)CCNc1nc(C)cc(N)n1`: the pKa (basic group) stood at 6.97.
Take `Oc1cccc2c1-c1c(O)cccc1-2`: the pKa (acidic group) amounted to 8.16.
Consider `CCNc1ccccc1C`, for which the pKa (basic group) was 4.92.
As for `[O-]c1ccc(O)cc1`, the pKa (acidic group) was found to be 11.6.
In the case of `CCOc1ccc2[nH]c(CC)nc2c1`, the pKa (basic group) was found to be 6.27.
In turn, `OCc1cccc(O)c1` gave a pKa (acidic group) of 9.83.
In the case of `C[C@H](N)[C@H](C)N`, under “basic group”, the pKa amounted to 9.84.
With `O=[N+]([O-])c1ccccc1B(O)O`, the pKa (acidic group) stood at 8.52.
The compound `CC1(C)CC(O)[N+](C)(C)C1` (configuration not stated) had a pKa (acidic group) of 8.7.
Under “basic group”, `COc1ccc2nccc(N)c2c1` had a pKa of 8.94.
Consider `CCN(CC)Cc1ccccc1O`, for which the pKa reads like this: (acidic group) 10.8; (basic group) 8.81.
In turn, `C[C@@H](Cc1ccccc1)N(C)C` showed a pKa (basic group) of 9.4.
In turn, `CN1CCCCCC1` returned a pKa (basic group) of 11.
As to `COc1ccc2ncccc2c1`, the pKa (basic group) was 5.05.
As to `O=C(O)[C@H]1CC[C@H](O)CC1`, the pKa (acidic group) stood at 4.68.
Still for that read-out and setting: under `CCOC(=O)CC(=O)c1ccc(C)cc1` stands 10.7.
For the setting “basic group”, `CNNC1CC[NH+](C)CC1` returned a pKa of 5.95.
Compound `c1ccc(-c2nc3ccccc3[nH]2)nc1` showed a pKa (acidic group) of 12.1 and a pKa (basic group) of 4.41.
Take `C[n+]1cccc(C(=O)O)c1`: the pKa (acidic group) worked out at 2.29.
`O=C(O)CSCCc1ccccc1`: the pKa (acidic group) stood at 3.8.
Regarding `O=C(O)C1CC1(Br)Br` (configuration not stated), the pKa (acidic group) amounted to 3.57.
On to `c1ccc(C2=NCCC2)cc1`, for which, where the note is “basic group”, the pKa is 7.2.
With `CC/C(=N/O)NO`, the pKa is, setting by setting: (acidic group) 10.7; (basic group) 5.15.
Where the note is “basic group”, `CCc1ccc(/N=N/c2ccc(N(C)C)cc2)cc1C` had a pKa of 2.6.
The same measure, in the same setting: the result for `OC(CN1CCCC1)CN1CCCC1` reads 9.73; that for `NCC(=O)Nc1ccc([N+](=O)[O-])cc1`, 8.5; that for `NC(=O)CCCc1ccncc1`, 5.64.
Under “acidic group”, `O=C(O)c1cccc2ccc[nH+]c12` registered a pKa of 1.9.
Where the note is “basic group”, `CCN(CC)C/C(C)=N/[O-]` returned a pKa of 11.
Regarding `CCCCCCCC(=O)N[C@H]1C(=O)N2[C@H]1SC(C)(C)[C@H]2C(=O)O`, the pKa (acidic group) turned out to be 2.66.
Under “acidic group”, `Cn1cnc2nc([O-])[nH]c(=S)c21` came in with a pKa of 12.1.
`O=[N+]([O-])c1ccc(O)c(C[NH+]2CCOCC2)c1`: the pKa (acidic group) stood at 5.61.
For `C1CNCCNCCCNCCNC1`, for the setting “basic group”, the pKa was determined as 11.1.
On the same count and under the same terms, the result for `CC[NH+](CC)CCCC(C)Nc1ccnc2cc(Br)ccc12` (configuration not stated) reads 8.1.
`O=C(O)[C@@H]1CC[C@@H](C(=O)O)S1`: the pKa (acidic group) was determined as 3.3.
Turning to `c1c(CN2CCNCC[NH2+]CC2)n[nH]c1CN1CCNCC[NH2+]CC1`, for the setting “basic group”, the pKa came out at 6.8.
For `CCCCCCN(CCO)CC(C)O` (configuration not stated), for the setting “basic group”, the pKa amounted to 9.
Consider `CNC[C@H](O)c1cccc(O)c1`, for which the pKa by setting is: (acidic group) 9.84; (basic group) 8.77.
`Clc1ccc(C(Cn2ccnc2)OCc2ccc(Sc3ccccc3)cc2)c(Cl)c1` (configuration not stated) yielded a pKa (basic group) of 6.54.
As to `[NH3+]c1ccc(-c2cnc(-c3ccc(Cl)cc3)o2)cc1`, where the note is “basic group”, the pKa was found to be 0.27.
`Nc1cc[nH+]c2c(O)cccc12` came in with a pKa (acidic group) of 6.91.
On the same count and under the same terms, under `Cc1c(I)cccc1C(=O)O` stands 3.26.
On to `CC[NH+](CC)CCNc1nc(C)cc(Nc2ccc(Cl)cc2)n1`, for which the pKa (basic group) amounted to 6.69.
The compound `[NH3+]CCCc1cccnc1` gave a pKa (basic group) of 5.19.
Regarding `Oc1ccc(O)c2ccccc12`, the pKa (acidic group) turned out to be 9.25.
The compound `C1CCC2NCCCC2C1` (configuration not stated) registered a pKa (basic group) of 10.9.
Take `COc1ncc2[nH]cnc2n1`: the pKa runs as follows: (acidic group) 9.2; (basic group) 2.44.
Compound `CSC(=N)N` gave a pKa (basic group) of 9.83.
As to `Nc1ccc(Cl)cc1N`, the pKa (basic group) came to 4.3.
For the setting “basic group”, `Brc1cncc2ccccc12` registered a pKa of 3.54.
Compound `O=C1NC(=O)c2ccccc21` displayed a pKa (acidic group) of 9.91.
`C/C(O)=N\[N+](C)(C)C` registered a pKa (acidic group) of 5.42.
As to `O=[N+]([O-])CCc1ccccc1`, the pKa (acidic group) worked out at 8.55.
Where the note is “basic group”, `COc1ccc(CCN)cc1OC` displayed a pKa of 9.87.
With `O=C(O)/C=C/CCl`, the pKa (acidic group) was 4.14.
In turn, `CN(C)CCCCC(=O)Oc1ccccc1` gave a pKa (basic group) of 10.
Take `COc1ccc(S(=O)(=O)NCc2ccccc2)cc1`: the pKa (acidic group) worked out at 11.5.
`CCN(CC)CCSC(C)C` came in with a pKa (basic group) of 9.32.
On to `Oc1ccc2ccc(Cl)cc2c1`, for which, where the note is “acidic group”, the pKa stood at 9.09.
For the compound `NC1CC1`, where the note is “basic group”, the pKa came to 9.1.
On to `c1cnc2c(c1)c1c(c3cccnc32)CCCC1`, for which the pKa (basic group) worked out at 5.3.
Under “acidic group”, `O=C(O)C[C@]1(O)C[C@@H]2C=C[C@H]1C2` gave a pKa of 4.36.
`O=C(O)Cn1cccc1` registered a pKa (acidic group) of 3.3.
Where the note is “basic group”, `c1cc(N2CCOCC2)ccc1N1CCOCC1` showed a pKa of 4.2.
Same read-out and setting: under `CC1CNCc2ccccc2OCCOc2ccccc2C[NH2+]1` (configuration not stated) stands 6.01.
As to `NCCCCCc1ccccn1`, under “basic group”, the pKa was 10.4.
The compound `Cc1cccc(N)c1-c1c(C)cccc1N` returned a pKa (basic group) of 3.7.
The compound `C1N2CN3CN1CN(C2)C3` showed a pKa (basic group) of 4.95.
Consider `COCCN(CCOC)c1ccccc1`, for which the pKa (basic group) amounted to 4.11.
For the compound `O=C1CN2CCC1CC2`, the pKa (basic group) amounted to 7.27.
Take `CCCc1cc(Cl)cc(Cl)c1O`: the pKa (acidic group) was found to be 8.1.
For the setting “acidic group”, `O=C(O)c1ccc([N+](=O)[O-])c2cccnc12` displayed a pKa of 1.41.
The compound `Cc1ccc(C(=O)O)cc1` displayed a pKa (acidic group) of 4.37.
The compound `NCC(N)=O` displayed a pKa (acidic group) of 8.05.
Still for that read-out and setting: under `Cn1cnc2c(O)[nH+]c(N)nc21` stands 3.07.
The compound `CC1CCCCN1` (configuration not stated) registered a pKa (basic group) of 11.
The same measure, in the same setting: the result for `Cc1ccc(N)cc1CN` reads 9.33.
In the case of `CC1=C(O)C(O)=CC1`, the pKa (acidic group) was found to be 9.11.
Regarding `COCCNc1cccc(OC)c1`, the pKa (basic group) is 3.7.
Compound `[O-]c1cnc2ccccc2n1` yielded a pKa (basic group) of 9.1.
For the setting “basic group”, `CCCN(C)C` gave a pKa of 9.62.
`Cc1ccc(N2CCCC2)cc1`: the pKa (basic group) came to 4.69.
`CC1(C)OC(=O)NC1=O`: the pKa (acidic group) came to 6.15.
On to `O=C(O)c1cnc(Cl)s1`, for which the pKa (acidic group) stood at 3.
As for `Cc1cc(C#N)cc[n+]1O`, under “acidic group”, the pKa is -0.67.
In the case of `CC1=C(CC(C)NCC(O)c2ccc(Br)cc2)CCC1(C)C` (configuration not stated), the pKa (basic group) stood at 8.57.
For the compound `O=CC1=CC=CC1`, under “acidic group”, the pKa worked out at 7.4.
The compound `CC1(N)C[C@]1(C)N` (some centres not stated) returned a pKa (basic group) of 9.03.
Take `Oc1ccc(/N=N/c2ccccc2)cc1`: for the setting “acidic group”, the pKa was 8.44.
Turning to `NC(=S)c1ccc([N+](=O)[O-])cc1`, the pKa (acidic group) came to 11.8.
`CN(C1=NCCO1)c1ccccc1`: where the note is “basic group”, the pKa came to 8.51.
Still for that read-out and setting: the result for `N#CN` reads 1.1.
Same read-out and setting: the result for `Nc1ncc([N+](=O)[O-])s1` reads 0.61; that for `CC(C#N)CN` (configuration not stated), 7.75; that for `Cc1ccccc1C(=NCCN(C)C)c1ccccc1C`, 8.5.
With `CC[NH+](CC)CCCCC(C)Nc1c2ccc(Cl)cc2nc2ccc(OC)cc12` (configuration not stated), for the setting “basic group”, the pKa was 7.74.
Still for that read-out and setting: the result for `NCCBr` reads 8.5; that for `CNc1ncnc2scnc12`, 2.84; that for `Nc1c(Cl)cc([N+](=O)[O-])cc1Cl`, -2.98.
On the same count and under the same terms, the result for `Cc1cc(-n2nc(C)cc2C)[nH]n1` reads 2.23.
The compound `Cc1ccc(S(N)(=O)=O)cc1C` showed a pKa (acidic group) of 9.62.
With `Cc1c(Cc2c(C)n(C)[n+](-c3ccccc3)c2O)c(=O)n(-c2ccccc2)n1C`, for the setting “acidic group”, the pKa was 1.51.
As for `O=Cc1ccccc1B(O)O`, where the note is “acidic group”, the pKa turned out to be 7.31.
`CCCCCCCCCCN`: the pKa (basic group) stood at 10.6.
Take `O/N=C\c1ccccc1`: the pKa (acidic group) worked out at 11.3.
In turn, `O=[Se](O)c1ccc2ccccc2c1` came in with a pKa (acidic group) of 4.67.
Same read-out and setting: the result for `On1nnc2ccc(C(F)(F)F)cc21` reads 3.97; that for `O=[N+]([O-])c1cccc(/C=N/O)c1`, 10.2.
With `C=Cc1c(C)c2cc3nc(c(CC(=O)OC)c4[nH]c(cc5nc(cc1[nH]2)C(C)=C5CC)c(C)c4C(=O)NCC)[C@@H](CCC(=O)OC)[C@@H]3C`, the pKa (basic group) came to 2.7.
For the setting “acidic group”, `O=[N+]([O-])c1ccc(O)c(C[NH+]2CCCCC2)c1` displayed a pKa of 5.88.
`Nc1nc2ccccc2c2ccccc12` displayed a pKa (basic group) of 7.31.
With `Cn1c[nH+]cc1C[C@H](NC(=O)CC[NH3+])C(=O)O`, the pKa (acidic group) was 2.64.
As to `CCOC(=S)S`, the pKa (acidic group) is 1.79.
`CC(C)CCCN(C)CCCNC(=O)/C=N/[O-]` gave a pKa (basic group) of 10.2.
On to `Cc1cc(Cl)ccc1C(=O)O`, for which, where the note is “acidic group”, the pKa came to 3.75.
The compound `CN[C@@H]1[C@@H](C)[C@@H]1NC` yielded a pKa (basic group) of 9.13.
`CC(C)S(=O)O` registered a pKa (acidic group) of 2.3.
Regarding `Nc1cccc(Cl)c1`, where the note is “basic group”, the pKa amounted to 3.59.
Still for that read-out and setting: under `CC(C)(C)[C@]1(O)CCN2C[C@H]3c4ccccc4CCc4cccc(c43)[C@@H]2C1` stands 7.15.
`C=C(SC1CCCCC1)C(=O)O`: the pKa (acidic group) turned out to be 3.4.
Regarding `CCCCN1CCCCC1`, where the note is “basic group”, the pKa was found to be 10.5.
Still for that read-out and setting: the result for `C=C(C)C(=O)OCCNCCCC` reads 9.12.
For `[NH3+][C@H]1CC[C@@H](C(=O)O)CC1`, for the setting “acidic group”, the pKa was 4.6.
Same read-out and setting: the result for `CC(C[Si](C)(C)CCl)C(=O)O` (configuration not stated) reads 5.32.
For the compound `OCNc1ccc(Cl)cc1`, the pKa (basic group) is 2.22.
In turn, `NC1CCc2ccccc2C1` (configuration not stated) showed a pKa (basic group) of 9.97.
On to `c1coc(CSc2ncnc3nc[nH]c23)c1`, for which the pKa (acidic group) was determined as 8.42.
`Cc1nc(N)c2cn[nH]c2n1`: the pKa by setting is: (acidic group) 11.3; (basic group) 5.41.
`CCc1ccc(O)c(CN(C)C)c1`: the pKa (basic group) turned out to be 8.51.
With `NC(=S)c1ccc(Br)cc1`, the pKa (acidic group) amounted to 12.5.
As to `CCOC(=O)c1cnc(N)s1`, the pKa (basic group) was 3.04.
As for `Nc1ccc([N+](=O)[O-])c(F)c1`, the pKa (basic group) is -0.3.
As for `[NH3+][C@@H](Cc1nc(I)[nH]c1I)C(=O)[O-]`, the pKa amounted to 8.18 (acidic group) and 2.72 (basic group).
`Cc1cc(NS(=O)(=O)c2ccc(N)cc2)nc(C)n1` gave a pKa (acidic group) of 7.49.
In turn, `N#CC(c1ccc(Cl)cc1)c1ccc([N+](=O)[O-])cc1` (configuration not stated) had a pKa (acidic group) of 10.7.
Under “acidic group”, `CC(=O)N[C@H]1CC(=O)NC1=O` came in with a pKa of 8.85.
Where the note is “acidic group”, `O=[N+]([O-])c1ccc(-c2ccc(O)cc2)cc1` gave a pKa of 9.01.
`CN1C2=CCCC1CCC2` (configuration not stated) returned a pKa (basic group) of 8.8.
